Experimental data reported in paper PMC5201331, “Subchronic Toxicities of HZ1006, a Hydroxamate-Based Histone Deacetylase Inhibitor, in Beagle Dogs and Sprague-Dawley Rats” (International Journal of Environmental Research and Public …, 2016).

Tested on: Beagle dogs
Experiment: Subchronic toxicity test in Beagle dogs: serum biochemistry
Type: in vivo
Description: HZ1006 was administered orally to dogs (four/sex/group) at doses of 80, 40, 20, 5 and 0 (control) mg/kg/day, and the dosage volume was 2 mL/kg. The dogs received test doses with the exact amounts on a weekly basis based on current body weights. […] The other dogs in the above groups were dissected on the planned days. For the other groups, half of the dogs were anatomized on d28 and the remaining half on d42.
The following indexes were examined for the dogs used in the study, twice during the pre-dosage period and on d14, d28 and d42. The following parameters were evaluated on d28 and d42 for the rats in the study:
The animal blood samples were collected in the tubes containing the coagulator and centrifuged at 500 g for 10 min; the supernatant was then collected into a new tube. The serum biochemistry indexes included the following: alanine aminotransferase (ALT), alkaline phosphatase (ALP), aspartate aminotransferase (AST), blood urea (BU), lactate dehydrogenase (LDH), total bilirubin (TBIL), creatinine (Crea), albumin (ALB), total protein (TP), triglycerides (TG), total cholesterol (TCH), γ-glutamyltranspeptidase (g-GT), glucose (GLU), creatine phosphokinase (CPK), uric acid (UA), phosphorus (P), and calcium (Ca^2+). The above parameters were analyzed using an Automatic Analyzer 7080 provided by Hitachi High-Technologies Corp. (Tokyo, Japan). An Na/K/Cl Analyzer EasyLyte PLUS from Medica Corp. (Bedford, MA, USA), was used to determine the levels of chloride (Cl^−), sodium (Na^+) and potassium (K^+) in the blood samples.

[1] = dog ♀6 (80 mg/kg/day oral), d0 (pre-dose)
[2] = dog ♀6 (80 mg/kg/day oral), d14 line (moribund, euthanized d8)
[3] = dog ♀28 (40 mg/kg/day oral), d0 (pre-dose)
[4] = dog ♀28 (40 mg/kg/day oral), d14 (died d16)
[5] = dogs, 5 mg/kg/day oral, d0 (pre-dose)
[6] = dogs, 5 mg/kg/day oral, d42 (recovery)
[7] = dogs, 20 mg/kg/day oral, d0 (pre-dose)

## CCCCCCCNc1cc(/C=C/C(=O)NO)ccc1OCCN(CC)CC [HZ1006]
[1]
  ALP: Alkaline phosphatase: 1.50 µmol/s/L
  ALT: Alanine aminotransferase: 487 nmol/s/L
  AST: Aspartate aminotransferase: 456 nmol/s/L
  BU: Blood urea: 4.04 mmol/L
  CPK: Creatine phosphokinase: 3.06 µmol/s/L
  CREA: Creatinine: 52.8 µmol/L
  LDH: Lactate dehydrogenase: 2.78 µmol/s/L
  TBIL: Total bilirubin: 2.95 µmol/L
  TCH: Total cholesterol: 3.27 mmol/L
[2]
  ALP: Alkaline phosphatase: 3.86 µmol/s/L
  ALT: Alanine aminotransferase: 466 nmol/s/L
  AST: Aspartate aminotransferase: 1907 nmol/s/L
  BU: Blood urea: 15.20 mmol/L
  CPK: Creatine phosphokinase: 57.57 µmol/s/L
  CREA: Creatinine: 82.4 µmol/L
  LDH: Lactate dehydrogenase: 2.91 µmol/s/L
  TBIL: Total bilirubin: 11.53 µmol/L
  TCH: Total cholesterol: 11.04 mmol/L
Dog ♀6 (80 mg/kg/day oral), printed in d0 line
  TG: Triglycerides: 1.60 mmol/L
Dog ♀6 (80 mg/kg/day oral), printed in d42 line
  TCH: Total cholesterol: 0.31 mmol/L
[3]
  ALP: Alkaline phosphatase: 1.33 µmol/s/L
  ALT: Alanine aminotransferase: 428 nmol/s/L
  AST: Aspartate aminotransferase: 398 nmol/s/L
  BU: Blood urea: 4.08 mmol/L
  CPK: Creatine phosphokinase: 2.47 µmol/s/L
  CREA: Creatinine: 47.9 µmol/L
  LDH: Lactate dehydrogenase: 2.21 µmol/s/L
  TBIL: Total bilirubin: 2.18 µmol/L
  TCH: Total cholesterol: 5.85 mmol/L
[4]
  ALP: Alkaline phosphatase: 3.16 µmol/s/L
  ALT: Alanine aminotransferase: 852 nmol/s/L
  AST: Aspartate aminotransferase: 4924 nmol/s/L
  BU: Blood urea: 4.89 mmol/L
  CPK: Creatine phosphokinase: 6.39 µmol/s/L
  CREA: Creatinine: 37.8 µmol/L
  LDH: Lactate dehydrogenase: 2.06 µmol/s/L
  TBIL: Total bilirubin: 9.65 µmol/L
  TCH: Total cholesterol: 10.73 mmol/L
[5]
  ALP: Alkaline phosphatase: 1.47 ± 0.30 µmol/s/L
  ALT: Alanine aminotransferase: 559 ± 120 nmol/s/L
  AST: Aspartate aminotransferase: 463 ± 106 nmol/s/L
  BU: Blood urea: 4.03 ± 0.52 mmol/L
  CPK: Creatine phosphokinase: 2.94 ± 1.40 µmol/s/L
  CREA: Creatinine: 51.5 ± 9.3 µmol/L
  LDH: Lactate dehydrogenase: 3.08 ± 1.36 µmol/s/L
  TBIL: Total bilirubin: 2.34 ± 0.31 µmol/L
  TCH: Total cholesterol: 4.28 ± 0.36 mmol/L
  TG: Triglycerides: 0.43 ± 0.11 mmol/L
dogs, 5 mg/kg/day oral, d14
  ALP: Alkaline phosphatase: 1.45 ± 0.35 µmol/s/L
  ALT: Alanine aminotransferase: 521 ± 116 nmol/s/L
  AST: Aspartate aminotransferase: 442 ± 105 nmol/s/L
  BU: Blood urea: 4.10 ± 0.90 mmol/L
  CPK: Creatine phosphokinase: 2.63 ± 1.36 µmol/s/L
  CREA: Creatinine: 51.0 ± 9.9 µmol/L
  LDH: Lactate dehydrogenase: 2.27 ± 1.24 µmol/s/L
  TBIL: Total bilirubin: 2.01 ± 0.41 µmol/L
  TCH: Total cholesterol: 3.98 ± 0.64 mmol/L
  TG: Triglycerides: 0.39 ± 0.08 mmol/L
dogs, 5 mg/kg/day oral, d28
  ALP: Alkaline phosphatase: 1.51 ± 0.29 µmol/s/L
  ALT: Alanine aminotransferase: 593 ± 105 nmol/s/L
  AST: Aspartate aminotransferase: 424 ± 109 nmol/s/L
  BU: Blood urea: 3.82 ± 0.51 mmol/L
  CPK: Creatine phosphokinase: 2.43 ± 0.19 µmol/s/L
  CREA: Creatinine: 51.4 ± 10.9 µmol/L
  LDH: Lactate dehydrogenase: 2.71 ± 1.12 µmol/s/L
  TBIL: Total bilirubin: 2.08 ± 0.52 µmol/L
  TCH: Total cholesterol: 4.24 ± 0.56 mmol/L
  TG: Triglycerides: 0.35 ± 0.11 mmol/L
[6]
  ALP: Alkaline phosphatase: 1.45 ± 0.37 µmol/s/L
  ALT: Alanine aminotransferase: 558 ± 90 nmol/s/L
  AST: Aspartate aminotransferase: 451 ± 79 nmol/s/L
  BU: Blood urea: 4.83 ± 0.20 mmol/L
  CPK: Creatine phosphokinase: 2.97 ± 0.18 µmol/s/L
  CREA: Creatinine: 55.6 ± 4.5 µmol/L
  LDH: Lactate dehydrogenase: 2.21 ± 1.32 µmol/s/L
  TBIL: Total bilirubin: 2.01 ± 0.33 µmol/L
  TCH: Total cholesterol: 3.99 ± 0.41 mmol/L
  TG: Triglycerides: 0.31 ± 0.09 mmol/L
[7]
  ALP: Alkaline phosphatase: 1.48 ± 0.48 µmol/s/L
  ALT: Alanine aminotransferase: 535 ± 92 nmol/s/L
  AST: Aspartate aminotransferase: 456 ± 92 nmol/s/L
  BU: Blood urea: 4.35 ± 0.98 mmol/L
  CPK: Creatine phosphokinase: 2.98 ± 0.64 µmol/s/L
  CREA: Creatinine: 51.6 ± 7.5 µmol/L
  LDH: Lactate dehydrogenase: 2.85 ± 0.86 µmol/s/L
  TBIL: Total bilirubin: 2.55 ± 0.28 µmol/L
  TCH: Total cholesterol: 4.31 ± 0.36 mmol/L
  TG: Triglycerides: 0.42 ± 0.09 mmol/L
dogs, 20 mg/kg/day oral, d14
  ALP: Alkaline phosphatase: 0.85 ± 0.25 µmol/s/L
  ALT: Alanine aminotransferase: 425 ± 105 nmol/s/L
  AST: Aspartate aminotransferase: 384 ± 56 nmol/s/L
  BU: Blood urea: 4.52 ± 1.05 mmol/L
  CPK: Creatine phosphokinase: 2.43 ± 0.48 µmol/s/L
  CREA: Creatinine: 58.6 ± 10.6 µmol/L
  LDH: Lactate dehydrogenase: 1.23 ± 0.45 µmol/s/L
  TBIL: Total bilirubin: 1.85 ± 0.16 µmol/L
  TCH: Total cholesterol: 3.16 ± 0.34 mmol/L
  TG: Triglycerides: 0.29 ± 0.08 mmol/L
